{"source": "patent US12122821B2", "about": "“Regulation of glucose metabolism using anti-CGRP antibodies” (H. LUNDBECK A/S, priority 2013, dated 2024)", "key": {"HFD rats": {"test_system": "HFD rats", "assay": "Fasting blood glucose, plasma insulin, C-peptide and HOMA-IR in HFD rats (Example 2)", "type": "in vivo, rat", "conditions": "vs HFD vehicle", "protocol": "After 6 weeks of HFD rats were randomized to treatment groups according to their glucose intolerance (AUC calculation during an oral glucose tolerance test (OGTT)) and their HOMA-IR (insulin resistance index).\nBody weight and food consumption were measured 3 times per week until 10 days of treatment. HOMA-IR was measured on day 10 and 15. A 2-step clamp (5 mU/kg/min and then 15 mU/kg/min insulin) was performed on day 15 or 16. Glucose Turnover (GTO) was assessed using ^3H-glucose tracer infusion during the clamp procedure.\nAb14 (10, 30, 100 mg/kg) and the vehicle were weekly administered via i.v. route (via the caudal vein, under isoflurane anaesthesia), in the morning, on day 1 and day 8 of treatment.\nBefore the start of the treatment (the day of OGTT) and on day 10 of treatment, all rats were fasted from 08:00 am. At 01:30 pm, blood was collected from the from the tip tail (40 μL on EDTA). Blood glucose (using glucometers) and plasma insulin (ELISA method) were measured.\nPlasma insulin and C peptide levels were measured just before the infusion starts (˜T-30 min.), at the end of the steady state of step 1 (T2 h) and step 2 (T3.5 h). For that, blood collection was performed from the tip of the tail (˜100 μL, on EDTA)."}, "[1]": {"test_system": "Zucker diabetic fatty (ZDF) rat", "assay": "Fasting blood glucose, plasma insulin, C-peptide and HOMA-IR in ZDF rats (Example 3)", "type": "in vivo", "conditions": "for increase of plasma C-peptide levels / increase of plasma insulin levels: vs vehicle ZDF; for increase of plasma C-peptide levels: NS; for increase of plasma insulin levels: ns", "protocol": "For the groups treated with AB14, the antibody was administered once weekly via the caudal vein (i.v., 5 mL/kg) on days 1, 8, 15, and 22 at two different doses 20 mg/kg/week (groups 3 and 7) or 60 mg/kg/week (groups 4 and 8). All other groups were treated once weekly with vehicle 1 (i.v., 5 mL/kg). The intravenous treatments were performed in the morning on day 1, 8, 15, and 22 while under isoflurane anaesthesia. The volume of administration was individually adapted according to the most recent body weight.\nAll other groups were treated daily with vehicle 2 (p.o., 5 mL/kg) for 28 days. The most recent body weight was used to calculate the average volume of administration in each group.\nA fasting (6 hours on day 0 from 8:00 am to 02:00 pm, and overnight on day 12, 19 and 26 from ˜6:00 pm to ˜8:00 am) was performed before each blood collection. Blood was collected at ˜2:00 pm, from the tip of the tail, on day 0 (before screening, 150 μL, potassium EDTA), and at ˜8:00 am prior to dosing on days 12 (110 μL, potassium EDTA), 19 (150 μL, potassium EDTA) and 26, (110 μL, potassium EDTA).\nFasting blood glucose (glucometers) was measured on days 0, 12, 19, and 26. Fasting plasma insulin, peptide-C (ELISA method), free fatty acids, triglycerides, total cholesterol (colorimetric method), and HDL-cholesterol (phosphotungstate precipitation, colorimetric method) were measured on day 0, and prior to dosing on days 12, 19, and day 26. Non HDL-cholesterol was calculated as total cholesterol—HDL-cholesterol. Fructosamine was measured on days 0, 19 and 28. HbA1c (DCA 2000) was measured on days 0 and 28."}, "Normal rats": {"test_system": "Normal rats", "assay": "Hyperinsulinemic-euglycemic clamp, whole body glucose fluxes in normal rats (Example 1)", "type": "in vivo, rat", "conditions": "vs vehicle", "protocol": "To assess the effect on whole body insulin sensitivity, a clamp procedure was performed using 0.3 U/kg/h insulin and ^3H-glucose. Rats were fasted for 6 hours before 180 minutes of perfusion. Steady state was reached after 140 minutes of infusion and the means of glucose infusion rate (GIR), whole body glucose turn over (GTO), hepatic glucose production (HGP), glycolysis, and glycogen synthesis were calculated from 140 min. to 180 min. A bolus of 14-C-2-deoxyglucose was administered 1 hour before the end of the clamp to measure tissue specific glucose utilization.\nThe hyperinsulinemic-euglycemic clamp was performed using ^3H-glucose as a tracer and 0.3 U/kg/h insulin infusion from 02:00 pm (T0) to 05:00 pm (T+3 h). A glucose solution was infused in parallel and the infusion rate was adjusted to reach the steady state (˜100+/−10 mg/dL). Blood glucose was measured from the tip of the tail using glucometers every 10 minutes. Blood was collected (10 μL) from the tip of the tail during the last hour (steady state) and the following parameters were assessed: Glucose infusion rate; Whole body glucose utilization rate; Hepatic glucose production rate; Whole body glycogen and glycolytic rates.\nWhole body Glucose fluxes."}, "[2]": {"conditions": "day 10, Ab14 10, 30, 100 mg/kg/week, metformin 200 mg/kg/day"}, "[3]": {"conditions": "day 12, metformin 200 mg/kg/day"}, "[4]": {"conditions": "day 19, metformin 200 mg/kg/day"}, "[5]": {"conditions": "day 26, metformin 200 mg/kg/day"}, "[6]": {"conditions": "clamp 0.3 U/kg/h insulin, 140-180 min, Ab14 100 mg/kg i.v., metformin 500 mg/kg p.o."}}, "data": [{"smiles": "CN(C)C(=N)N=C(N)N", "note": "[metformin, reference compound]", "values": [{"measurement": "decrease of HOMA-IR", "setting": "HFD rats; [2]", "result": 36, "unit": "%"}, {"measurement": "decrease of fasting plasma insulin", "setting": "HFD rats; [2]", "result": 37, "unit": "%"}, {"measurement": "fasting blood glucose", "setting": "HFD rats; [2]", "result": "no effect"}, {"measurement": "decrease of plasma C-peptide level", "setting": "HFD rats; day 15, metformin 200 mg/kg/day", "result": 13, "unit": "%"}, {"measurement": "decrease of fasting plasma insulin", "setting": "HFD rats; day 15, metformin 200 mg/kg/day, ns", "result": 11, "unit": "%"}, {"measurement": "increase of plasma C-peptide levels", "setting": "[1]; [3]", "result": 23, "unit": "%"}, {"measurement": "increase of plasma insulin levels", "setting": "[1]; [3]", "result": 79, "unit": "%"}, {"measurement": "increase of plasma C-peptide levels", "setting": "[1]; [4]", "result": 21, "unit": "%"}, {"measurement": "increase of plasma insulin levels", "setting": "[1]; [4]", "result": 55, "unit": "%"}, {"measurement": "fasting blood glucose, effect", "setting": "[1]; day 19 and 26, metformin 200 mg/kg", "result": "not observed"}, {"measurement": "increase of plasma C-peptide levels", "setting": "[1]; [5]", "result": 9, "unit": "%"}, {"measurement": "increase of plasma insulin levels", "setting": "[1]; [5]", "result": 48, "unit": "%"}, {"measurement": "HOMA-IR", "setting": "[1]; days 12, 19 and 26, metformin 200 mg/kg/day alone or in combination with AB14, vs vehicle ZDF", "result": "increase of HOMA-IR"}, {"measurement": "GIR evolution during clamp", "setting": "Normal rats; Ab14 100 mg/kg i.v., metformin 500 mg/kg p.o.", "result": "significantly increased"}, {"measurement": "increase of glucose infusion rate (GIR)", "setting": "Normal rats; clamp 0.3 U/kg/h insulin, 140-180 min, Ab14 100 mg/kg i.v. 48 h before, metformin 500 mg/kg p.o. 24 h and 4 h before", "result": 27, "unit": "%"}, {"measurement": "increase of glycolysis rate", "setting": "Normal rats; [6]", "result": 43, "unit": "%"}, {"measurement": "increase of whole body glucose turn over (GTO)", "setting": "Normal rats; [6]", "result": 30, "unit": "%"}]}]}
